Columns and labels:
[1] = test system: MCF-7 cells; assay: Breast cancer cell viability assay (CellTiter-Glo, 5 days); assay type: cell-based; conditions: 5 days' compound exposure; for IC50: Homo sapiens, MCF7, 120 h
Protocol: MCF-7 cells were adjusted to a concentration of 20,000 cells per mL in RPMI containing 10% FBS and 20 mM HEPES. 16 microliters of the cell suspension (320 cells) was added to each well of a 384 well plate, and the cells were incubated overnight to allow the cells to adhere. The following day an eleven point, serial semilog dilution of each compound was added to the cells in 16 μL at a final concentration ranging from 0.3-0.000003 μM. After 5 days' compound exposure, 16 μL of CellTiter-GLo (Promega, Madison Wis.) was added to the cells the relative luminescence units (RLUs) of each well was determined CellTiter-Glo added to 32 μL of medium without cells was used to obtain a background value. The Percent viability of each sample was determined as follows: (RLU sample-RLU background/RLU untreated cells-RLU background)×100=% viability.

[2] = target: T1, ER-α in MCF-7 cells (Homo sapiens, UniProt P03372); assay: Breast cancer cell ER-α in cell western assay (SP1); assay type: cell-based; set-up: endogenous in cells; host or cells: MCF-7; conditions: 4 or 24 hr post compound addition; for Emax: MCF7, SP1 antibody, read-out: ER-α In Cell Western Assay (SP1) Max Response; for DC50: SP1 antibody, read-out: ER-α In Cell Western Assay (SP1) IC50
T1 sequence (P03372 1-595): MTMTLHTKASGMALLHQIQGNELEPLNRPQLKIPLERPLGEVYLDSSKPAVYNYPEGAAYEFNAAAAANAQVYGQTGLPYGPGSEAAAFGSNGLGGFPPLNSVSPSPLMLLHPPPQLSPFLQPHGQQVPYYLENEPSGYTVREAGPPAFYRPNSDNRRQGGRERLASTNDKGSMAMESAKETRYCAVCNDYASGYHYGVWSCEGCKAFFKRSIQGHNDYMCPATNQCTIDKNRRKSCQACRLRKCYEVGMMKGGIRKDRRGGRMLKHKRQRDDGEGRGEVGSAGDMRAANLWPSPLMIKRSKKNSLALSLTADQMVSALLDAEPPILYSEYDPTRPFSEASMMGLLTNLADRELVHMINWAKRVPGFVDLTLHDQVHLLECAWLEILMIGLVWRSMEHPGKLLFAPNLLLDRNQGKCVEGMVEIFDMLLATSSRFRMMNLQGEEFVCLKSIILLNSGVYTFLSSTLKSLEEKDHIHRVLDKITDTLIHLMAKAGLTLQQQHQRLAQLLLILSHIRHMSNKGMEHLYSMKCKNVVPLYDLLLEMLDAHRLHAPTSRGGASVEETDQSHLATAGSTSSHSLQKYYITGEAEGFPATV
Protocol: MCF-7 cells were adjusted to a concentration of 200,000 cells per mL in RPMI containing 10% charcoal-stripped FBS and 20 mM HEPES. 16 microliters of the cell suspension (3200 cells) was added to each well of a poly-D-lysine 384 well plate, and the cells were incubated overnight to allow the cells to adhere. The following day an eleven point, serial semilog dilution of each compound was added to the cells in 16 μL at a final concentration ranging from 0.3-0.000003 μM. At 4 or 24 hr post compound addition, the cells were fixed (10% formalin in PBS) for 20 minutes. Cells were permeablized in PBS 0.1% Triton and blocked with LICOR blocking buffer (50 μl/well, 90°). The wells were then incubated overnight at 4° C. with SP1 rabbit monoclonal Ab (Thermo Scientific) diluted 1:1000 in LICOR blocking buffer/0.1% Tween-20. Wells which were treated with blocking buffer with Tween but no antibody were used as a background control. Wells were washed with 0.1% Tween-20/PBS and then incubated in goat anti-rabbit IRDye™ 800CW (LICOR Inc.; 1:1000) and DRAQ5 DNA dye (1:2000 for 2 mM stock) diluted in LICOR blocking buffer containing 0.1% Tween-20 and 0.01% SDS for 60 minutes. Cells were washed (50 μl/well, 5′ each) in 0.1% Tween-20/PBS. Plates were scanned on a LICOR Odyssey infrared imaging system. Integrated intensities in the 800 nm channel and 700 nm channel were measured to determine levels of ER and DNA respectively. Percent ER levels were determined as follows: (Integrated intensity 800 nm sample/integrated intensity 700 nm sample)/(Integrated intensity 800 nm untreated cells/integrated intensity 700 nm untreated cells)×100=% ER levels.

IC50 [1] [nM]	Emax [2] [%]	DC50 [2] [nM]	Structure (SMILES)	MCF7 Viability Assay Max Response [1]
≤ 100	≥ 40	≤ 100	CC/C(=C(/c1ccc(/C=C/C(=O)O)cc1)c1ccc2[nH]nnc2c1)c1ccc(F)cc1Cl [Compound 72, (E)-3-(4-((E)-1-(1H-Benzo[d][1,2,3]triazol-5-yl)-2-(2-chloro-4-fluorophenyl)but-1-en-1-yl)phenyl)acrylic acid]	++ (++ = a single % value ≧ 40%)
≤ 100	≥ 40	≤ 100	CC/C(=C(/c1ccc(/C=C/C(=O)O)cc1)c1ccc2[nH]ncc2c1)c1ccc(Oc2ccccn2)cc1 [Compound 316, (E)-3-(4-((E)-1-(1H-Indazol-5-yl)-2-(4-(pyridin-2-yloxy)phenyl)but-1-en-1-yl)phenyl)acrylic acid]	++ (++ = a single % value ≧ 40%)
≤ 100	≥ 40	≤ 100	CC/C(=C(/c1ccc(/C=C/C(=O)O)cc1)c1ccc2[nH]ncc2c1)c1cccc(-c2nccs2)c1 [Compound 391, (E)-3-(4-((E)-1-(1H-Indazol-5-yl)-2-(3-(thiazol-2-yl)phenyl)but-1-en-1-yl)phenyl)acrylic acid]	++ (++ = a single % value ≧ 40%)
≤ 100	≥ 40	≤ 100	CC/C(=C(/c1ccc(/C=C/C(=O)NS(C)(=O)=O)cc1)c1ccc2[nH]ncc2c1)c1ccccc1 [Compound 423, (E)-3-(4-((E)-1-(1H-Indazol-5-yl)-2-phenylbut-1-en-1-yl)phenyl)-N-(methylsulfonyl)acrylamide]	++ (++ = a single % value ≧ 40%)
≤ 100	≥ 40	≤ 100	CC/C(=C(/c1ccc(/C=C/C(=O)O)cc1)c1cc2ccccc2o1)c1ccc(F)cc1Cl [Compound 169, (E)-3-(4-((E)-1-(Benzofuran-2-yl)-2-(2-chloro-4-fluorophenyl)but-1-en-1-yl)phenyl)acrylic acid]	++ (++ = a single % value ≧ 40%)
≤ 100	≥ 40	≤ 100	CCCCCOc1cccc(/C(CC)=C(\c2ccc(/C=C/C(=O)O)cc2)c2ccc3[nH]ncc3c2)c1 [Compound 349, (E)-3-(4-((E)-1-(1H-Indazol-5-yl)-2-(3-(pentyloxy)phenyl)but-1-en-1-yl)phenyl)acrylic acid]	++ (++ = a single % value ≧ 40%)
> 100	≥ 40	≤ 100	CC/C(=C(/c1ccc(/C=C/C(=O)O)cc1)c1ccc2[nH]ncc2c1)c1cccc(-c2ccncc2)c1 [Compound 394, (E)-3-(4-((E)-1-(1H-Indazol-5-yl)-2-(3-(pyridin-4-yl)phenyl)but-1-en-1-yl)phenyl)acrylic acid]	++ (++ = a single % value ≧ 40%)

The remaining lines, values behind:

Structure (SMILES)	IC50 [1] [nM]	Emax [2] [%]	DC50 [2] [nM]	MCF7 Viability Assay Max Response [1]
CC/C(=C(/c1ccc(/C=C/C(=O)O)cc1)c1ccc2[nH]ncc2c1)c1ccc(Oc2ccccc2)c(C)c1 [Compound 320, (E)-3-(4-((E)-1-(1H-Indazol-5-yl)-2-(3-methyl-4-phenoxyphenyl)but-1-en-1-yl)phenyl)acrylic acid]	≤ 100	≥ 40	≤ 100	++ (++ = a single % value ≧ 40%)
CC/C(=C(/c1ccc(/C=C/C(=O)O)cc1)c1ccc2[nH]ncc2c1)c1ccc2c(c1)CCO2 [Compound 256, (E)-3-(4-((E)-2-(2,3-Dihydrobenzofuran-5-yl)-1-(1H-indazol-5-yl)but-1-en-1-yl)phenyl)acrylic acid]	≤ 100	≥ 40	≤ 100	++ (++ = a single % value ≧ 40%)
CC/C(=C(/c1ccc(/C=C/C(=O)O)cc1)c1ccc2[nH]c(=O)ccc2c1)c1ccccc1 [Compound 105, (E)-3-(4-((E)-1-(2-Oxo-1,2-dihydroquinolin-6-yl)-2-phenylbut-1-en-1-yl)phenyl)acrylic acid]	> 100	≥ 40	> 100	++ (++ = a single % value ≧ 40%)
CC/C(=C(/c1ccc(/C=C/C(=O)O)cc1)c1ccn2cncc2c1)c1ccccc1 [Compound 135, (E)-3-(4-((E)-1-(Imidazo[1,5-a]pyridin-7-yl)-2-phenylbut-1-en-1-yl)phenyl)acrylic acid]	≤ 100	≥ 40	> 100	+ (+ = a single % value < 40%)
CC/C(=C(/c1ccc(/C=C/C(=O)O)cc1)c1ccc2[nH]ncc2c1)c1cccc(Oc2ccccc2S(C)(=O)=O)c1 [Compound 374, (E)-3-(4-((E)-1-(1H-Indazol-5-yl)-2-(3-(2-(methylsulfonyl)phenoxy)phenyl)but-1-en-1-yl)phenyl)acrylic acid]	> 100	≥ 40	> 100	++ (++ = a single % value ≧ 40%)
CC/C(=C(/c1ccc(/C=C/C(=O)O)cc1)c1ccc2[nH]ncc2c1)c1cccc(Oc2ccc(F)cc2)c1 [Compound 269, (E)-3-(4-((E)-2-(3-(4-Fluorophenoxy)phenyl)-1-(1H-indazol-5-yl)but-1-en-1-yl)phenyl)acrylic acid]	≤ 100	≥ 40	≤ 100	++ (++ = a single % value ≧ 40%)
CC/C(=C(/c1ccc(/C=C/C(=O)NC2CCCC2)cc1)c1ccc2[nH]ncc2c1)c1ccccc1 [Compound 431, (E)-3-(4-((E)-1-(1H-Indazol-5-yl)-2-phenylbut-1-en-1-yl)phenyl)-N-cyclopentylacrylamide]	≤ 100	≥ 40	≤ 100	++ (++ = a single % value ≧ 40%)
CC/C(=C(/c1ccc(/C=C/C(=O)O)cc1)c1ccc2[nH]ncc2c1)c1cccc(Oc2ccncn2)c1 [Compound 364, (E)-3-(4-((E)-1-(1H-Indazol-5-yl)-2-(3-(pyrimidin-4-yloxy)phenyl)but-1-en-1-yl)phenyl)acrylic acid]	≤ 100	≥ 40	≤ 100	++ (++ = a single % value ≧ 40%)
CC/C(=C(/c1ccc(/C=C/C(=O)O)cc1)c1ccc2nonc2c1)c1ccccc1 [Compound 137, (E)-3-(4-((E)-1-(Benzo[c][1,2,5]oxadiazol-5-yl)-2-phenylbut-1-en-1-yl)phenyl)acrylic acid]	> 100	≥ 40	> 100	+ (+ = a single % value < 40%)
CC/C(=C(/c1ccc(OC[C@H](C)N2CC[C@@H](C)C2)cc1)c1ccc2[nH]ncc2c1)c1ccccc1 [Compound 329, 5-((E)-1-(4-((S)-2-((R)-3-Methylpyrrolidin-1-yl)propoxy)phenyl)-2-phenylbut-1-en-1-yl)-1H-indazole]	≤ 100	≥ 40	≤ 100	++ (++ = a single % value ≧ 40%)
CC/C(=C(/c1ccc(/C=C/C(=O)O)cc1)c1ccc2c(cnn2C(F)F)c1)c1ccc(F)cc1Cl [Compound 401, (E)-3-(4-((E)-2-(2-Chloro-4-fluorophenyl)-1-(1-(difluoromethyl)-1H-indazol-5-yl)but-1-en-1-yl)phenyl)acrylic acid]	> 100			

Reference: patent publication US9399646B2 (Genentech, Inc., priority 2010, dated 2016)
